Results: PMC3577712 (PLoS ONE, 2013)

Key:
NA = conditions: cited from earlier work
Bac-NA^WT = Bac-NA^WT (Influenza A virus, UniProt Q6DPL2); experiment: biochemical
A/WSN/33 = format: cell-based, influenza A virus
[1] = test system: influenza A/Udorn/72 (H3N2); experiment: microbe, parasite or virus in culture; format: cell-based; conditions: H3N2, MDCK, read-out: EC50 for viral plaque formation
A/WSN/33 (H1N1) = format: cell-based, influenza A virus
N2 NA = N2 NA (Influenza A virus, UniProt P0DOF9); experiment: biochemical
[2] = test system: influenza A/WSN/33 (H1N1); experiment: microbe, parasite or virus in culture; format: cell-based; conditions: MDCK, read-out: EC50 for viral plaque formation

Sequence of N2 NA (P0DOF9 whole entry, looked up): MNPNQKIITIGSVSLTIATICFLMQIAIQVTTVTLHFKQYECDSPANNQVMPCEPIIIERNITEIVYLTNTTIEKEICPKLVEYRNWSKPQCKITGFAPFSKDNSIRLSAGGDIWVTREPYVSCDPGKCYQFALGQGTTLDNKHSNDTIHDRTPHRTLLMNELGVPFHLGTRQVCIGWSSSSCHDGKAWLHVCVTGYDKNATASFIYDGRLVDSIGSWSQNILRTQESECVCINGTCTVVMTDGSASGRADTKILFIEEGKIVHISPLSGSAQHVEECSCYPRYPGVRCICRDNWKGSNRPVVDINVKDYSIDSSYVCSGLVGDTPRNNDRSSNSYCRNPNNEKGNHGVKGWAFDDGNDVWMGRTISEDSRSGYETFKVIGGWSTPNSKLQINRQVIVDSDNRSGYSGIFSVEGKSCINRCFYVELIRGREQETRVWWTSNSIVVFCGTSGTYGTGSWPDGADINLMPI
Sequence of Bac-NA^WT (Q6DPL2 63-449 limits assumed): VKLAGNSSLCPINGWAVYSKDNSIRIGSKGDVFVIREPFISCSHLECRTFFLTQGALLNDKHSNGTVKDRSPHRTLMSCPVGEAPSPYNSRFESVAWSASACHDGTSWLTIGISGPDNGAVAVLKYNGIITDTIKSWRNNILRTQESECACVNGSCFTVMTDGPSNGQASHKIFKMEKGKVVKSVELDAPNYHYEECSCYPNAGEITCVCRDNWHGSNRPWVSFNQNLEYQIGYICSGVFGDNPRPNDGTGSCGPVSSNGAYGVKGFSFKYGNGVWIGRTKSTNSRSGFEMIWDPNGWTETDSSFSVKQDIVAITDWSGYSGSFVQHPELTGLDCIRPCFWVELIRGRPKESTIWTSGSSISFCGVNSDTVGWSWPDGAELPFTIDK

DANA
IC50 (NA): 10 µM

Nc1c(S(=O)(=O)O)cc(Nc2cccc(S(=O)(=O)CCOS(=O)(=O)O)c2)c2c1C(=O)c1ccccc1C2=O [RB19, Remazol Brilliant Blue R]
IC50 (Bac-NA^WT): 3.4 µM
Influenza-induced cytopathic effect (A/WSN/33): inhibits the influenza-induced cytopathic effect
EC50 [1]: 2.8 µM
Virus yields (fluorogenic signal of NA activity) (A/WSN/33 (H1N1)): dramatically reduced virus yields
IC50 (N2 NA): 15.3 µM
EC50 [2]: 2.7 µM
